Measurements from patent US20260013442A1, “METHOD FOR VEGETATIVE PROPAGATION OF PLANTS” (LETAVIS AB, priority 2020, published 2026).

What was measured:
[1] = tested on: potato tubers of the summer variety Perlo; experiment: Potato tubers treated with oxytocin before pre-sprouting in sunlight; assay type: in vivo; settings: nineteen days of pre-sprouting
Procedure: Potato tubers of the summer variety Perlo were pre-sprouting in sunlight after treatment with either tap water, 1 μM oxytocin or 10 μm oxytocin for 6 or 24 hours. For each treatment, 8 tubers were treated by placing them in plastic vessels and covered them with the respective test solution. After treatment, the tubers were pre-sprouted in sunlight at about 20° C. Nineteen days later, the number of sprouts were counted for each tuber and the length per sprout was measured.

[2] = tested on: cuttings from rose No. 2 (mini rose); experiment: Callus/root formation on cuttings from rose No. 2 in oxytocin solution; assay type: in vivo; settings: for Grading of callus formation: grading 0-8
Procedure: (§1) Cuttings, about 7 cm long, from the top of a branch of two different roses (rose No. 1 and rose No. 2) and cut directly under a node were put into 100 ml Erlenmeyer flasks with concentrations of oxytocin from 0 to 10 μM (0, 0.5, 1, 2.5, 5 and 10 μM) in tap water. Two cuttings were added to each Erlenmeyer flask. Thereafter, the Erlenmeyer flasks were placed in a growing room under a light intensity of 800 μmol*m^−2*s^−1.
Cuttings in this experiment was taken from the small rose bushes in pot bought in a flower shop (mini rose), and put into Erlenmeyer flasks. […] Best effect was obtained at 10 μM oxytocin, followed closely by 2.5 μM oxytocin.
Vigorous development of callus indicates high potential for root formation. To study this effect, the Erlenmeyer flasks with the cuttings from the experiment with rose No. 2 have been covered with aluminium foil.

rose cuttings = experiment: Effect of different concentrations of oxytocin on cuttings of roses (58 days); assay type: in vivo; settings: for Total No. roots: 4 E-flasks with 2 cuttings; for Number of cuttings with roots / Number of living cuttings / Per cutting No. roots / Per cutting Number of side shoots >10 mm / Per cutting mm root / Vitality: n = 8; for Vitality: grading 0-5
Procedure: On Feb. 11, 2020, cuttings from purchased pots with roses were put into 100 ml Erlenmeyer flasks (E-flasks) with a concentration of oxytocin from 0 to 50 μM (0, 0.5, 1, 5, 10, 20 and 50 μM). The experiment consisted of four E-flasks per concentration with two cuttings in each E-flask. The E-flasks were covered with aluminum foil and placed in a culture room. From day 45, measurements were made every 4-5 days. At day 58, the trial was interrupted.

[3] = tested on: cut flowers of roses of the variety Furiosa; experiment: Root growth of stalks of cut flowers of the variety Furiosa; assay type: in vivo, rose
Procedure: Cut flowers of roses of the variety Furiosa, which had obtained at least 2 side shoots from the stalk, were put in water to allow the side shoots to continue to grow. When the side shoots had reached a length of about 5 cm, the stalk was cut by some mm under the lowest side shoot, which was also removed from the stalk. The stalks were then put into 100 ml Erlenmeyer flasks with either water alone or an oxytocin solution. The solution contained either 1, 4 or 8 μM oxytocin. The liquid in the Erlenmeyer flasks was darkened by coating the flasks with aluminium foil. The flasks were placed in daylight.

[4] = tested on: cuttings from rose No. 1 (garden rose bush); experiment: Callus/root formation on cuttings from rose No. 1 in oxytocin solution; assay type: in vivo; settings: for Grading of callus formation: grading 0-8
Procedure: as §1
Cuttings in this experiment were taken from a garden rose bush. […] A grading of the effect of different oxytocin concentrations on the formation of callus from the cuttings can be seen in Table 1. Callus can easily be explained as an accumulation of cells that has not developed into any specific tissue, such as root tissues. Best coverage of callus on the cutting surface of the cuttings was obtained at a concentration of oxytocin of 2.5 μM (FIG. 1).

cuttings from hibiscuses = experiment: Effect of oxytocin on cuttings of hibiscus; assay type: in vivo; settings: 90 days
Excerpt: […] Five cuttings per treatment were used.
The flasks were covered with aluminum foil and the flasks were kept at room temperature in a window.
The experiment was allowed to run for 90 days whereafter the development of calluses and roots was documented.

[5] = 5 μM oxytocin, 31 days, 2 cuttings

oxytocin
percentage increase of long sprouts (over 5 mm) compared to tap water for 6 hours ([1]; 1 μM oxytocin for 6 hours): 124% | percentage increase in number of shoots compared to tap water for 6 hours ([1]; 1 μM oxytocin for 24 hours): 34.6% | percentage increase of long sprouts (over 5 mm) compared to tap water for 6 hours ([1]; 1 μM oxytocin for 24 hours): 112.5% | percentage increase of long sprouts (over 5 mm) compared to tap water for 6 hours ([1]; 10 μM oxytocin for 6 hours): 100% | percentage increase in number of shoots compared to tap water for 6 hours ([1]; 10 μM oxytocin for 24 hours): 37.5% | Grading of callus formation ([2]; 0.5 μM oxytocin, 24 days, 2 cuttings): 2 | root formation ([2]; 0.5 μM oxytocin, nineteen days after day 24, flasks covered with aluminium foil): roots had been formed in all treatments except in 0.5 μM oxytocin | Grading of callus formation ([2]; 1 μM oxytocin, 24 days, 2 cuttings): 3 | Grading of callus formation ([2]; 2.5 μM oxytocin, 24 days, 2 cuttings): 6 | Grading of callus formation ([2]; 5 μM oxytocin, 24 days, 2 cuttings): 1 | cuttings showing root development ([2]; 5 μM oxytocin, nineteen days after day 24, 2 cuttings): one of the two cuttings | Grading of callus formation ([2]; 10 μM oxytocin, 24 days, 2 cuttings): 7 | development of roots from cuttings ([2]; 1-10 μM oxytocin): stimulated the development of roots | root development ([2]; 2.5 and 10 μM oxytocin, nineteen days after day 24): Root development was best | leaf aging ([2]; 5-10 μM oxytocin): inhibit leaf aging | concentration with best effect on development of callus ([2]; 24 days, tested 0-10 μM): 10 µM | Root length Mean length (rose cuttings; 0.5 μM oxytocin, 58 days): 13.3 mm | Total No. roots (rose cuttings; 0.5 μM oxytocin, 58 days): 26 | Number of cuttings with roots (rose cuttings; 0.5 μM oxytocin, 58 days): 5 | Number of living cuttings (rose cuttings; 0.5 μM oxytocin, 58 days): 7 | Per cutting No. roots (rose cuttings; 0.5 μM oxytocin, 58 days): 3.3 | Per cutting Number of side shoots >10 mm (rose cuttings; 0.5 μM oxytocin, 58 days): 0.4 | Per cutting mm root (rose cuttings; 0.5 μM oxytocin, 58 days): 43 mm | Vitality (rose cuttings; 0.5 μM oxytocin, 58 days): 2.6 | Root length Mean length (rose cuttings; 1 μM oxytocin, 58 days): 17.4 mm | Total No. roots (rose cuttings; 1 μM oxytocin, 58 days): 55 | Number of cuttings with roots (rose cuttings; 1 μM oxytocin, 58 days): 6 | Number of living cuttings (rose cuttings; 1 μM oxytocin, 58 days): 8 | Per cutting No. roots (rose cuttings; 1 μM oxytocin, 58 days): 6.9 | Per cutting Number of side shoots >10 mm (rose cuttings; 1 μM oxytocin, 58 days): 1 | Per cutting mm root (rose cuttings; 1 μM oxytocin, 58 days): 119 mm | Vitality (rose cuttings; 1 μM oxytocin, 58 days): 3.5 | time after which all cuttings had developed roots (rose cuttings; 5 μM oxytocin): 50 days | Root length Mean length (rose cuttings; 5 μM oxytocin, 58 days): 11.6 mm | Total No. roots (rose cuttings; 5 μM oxytocin, 58 days): 51 | Number of cuttings with roots (rose cuttings; 5 μM oxytocin, 58 days): 7 | Number of living cuttings (rose cuttings; 5 μM oxytocin, 58 days): 7 | Per cutting No. roots (rose cuttings; 5 μM oxytocin, 58 days): 6.4 | Per cutting Number of side shoots >10 mm (rose cuttings; 5 μM oxytocin, 58 days): 0.6 | Per cutting mm root (rose cuttings; 5 μM oxytocin, 58 days): 76 mm | Vitality (rose cuttings; 5 μM oxytocin, 58 days): 2.5 | cuttings that had developed roots (rose cuttings; 5 μM oxytocin, day 45): five out of seven | delay until all cuttings had roots, compared with 5 μM oxytocin (rose cuttings; 10 μM and 50 μM oxytocin): 4 to 8 days | Root length Mean length (rose cuttings; 10 μM oxytocin, 58 days): 11.4 mm | Total No. roots (rose cuttings; 10 μM oxytocin, 58 days): 46 | Number of cuttings with roots (rose cuttings; 10 μM oxytocin, 58 days): 7 | Number of living cuttings (rose cuttings; 10 μM oxytocin, 58 days): 7 | Per cutting No. roots (rose cuttings; 10 μM oxytocin, 58 days): 5.8 | Per cutting Number of side shoots >10 mm (rose cuttings; 10 μM oxytocin, 58 days): 0.5 | Per cutting mm root (rose cuttings; 10 μM oxytocin, 58 days): 66 mm | Vitality (rose cuttings; 10 μM oxytocin, 58 days): 2.9 | Root length Mean length (rose cuttings; 20 μM oxytocin, 58 days): 12.7 mm | Total No. roots (rose cuttings; 20 μM oxytocin, 58 days): 46 | Number of cuttings with roots (rose cuttings; 20 μM oxytocin, 58 days): 5 | Number of living cuttings (rose cuttings; 20 μM oxytocin, 58 days): 6 | Per cutting No. roots (rose cuttings; 20 μM oxytocin, 58 days): 5.8 | Per cutting Number of side shoots >10 mm (rose cuttings; 20 μM oxytocin, 58 days): 0.5 | Per cutting mm root (rose cuttings; 20 μM oxytocin, 58 days): 72 mm | Vitality (rose cuttings; 20 μM oxytocin, 58 days): 2.3 | Root length Mean length (rose cuttings; 50 μM oxytocin, 58 days): 10.0 mm | Total No. roots (rose cuttings; 50 μM oxytocin, 58 days): 52 | Number of cuttings with roots (rose cuttings; 50 μM oxytocin, 58 days): 8 | Number of living cuttings (rose cuttings; 50 μM oxytocin, 58 days): 8 | Per cutting No. roots (rose cuttings; 50 μM oxytocin, 58 days): 6.5 | Per cutting Number of side shoots >10 mm (rose cuttings; 50 μM oxytocin, 58 days): 0.4 | Per cutting mm root (rose cuttings; 50 μM oxytocin, 58 days): 65 mm | Vitality (rose cuttings; 50 μM oxytocin, 58 days): 3.5 | cuttings that had developed callus (rose cuttings; 50 μM oxytocin, day 45): all cuttings | cuttings that had calluses (rose cuttings; 1, 5 and 10 μM oxytocin, day 45): all but one of the living cuttings | concentration giving most roots and longest total length of roots per cutting (rose cuttings; 6 cuttings per concentration (FIG. 7)): 1 µM | concentration most potent for callus and roots at nodes higher up on the stem (rose cuttings; 58 days, tested 0-50 μM): 20 µM | total amount of roots formed, average over concentrations (rose cuttings; concentrations of 1 M and above, 58 days, compared to 30 at 0 μM): 50.5 mm | root quality of stalk ([3]; 1 μM oxytocin, one month after the 2.5 months): showed the best root | survival of stalks ([3]; 4 μM oxytocin, one month after the 2.5 months, secondary fungal growth): had died due to a secondary fungal growth | root formation on stalks ([3]; 1, 4 or 8 μM oxytocin, after about 2.5 months, untreated had died): obtained roots | root growth on stalks ([3]; 1 and 8 μM oxytocin, one month after the 2.5 months): roots had grown much longer | Grading of callus formation ([4]; 0.5 μM oxytocin, 31 days, 2 cuttings): 6 | Grading of callus formation ([4]; 1 μM oxytocin, 31 days, 2 cuttings): 4 | Grading of callus formation ([4]; 2.5 μM oxytocin, 31 days, 2 cuttings): 7 | small roots formed [4, 5]: one | Grading of callus formation [4, 5]: 6 | length of root developed from callus ([4]; 5 μM oxytocin, one of the two cuttings): 2-3 mm | Grading of callus formation ([4]; 10 μM oxytocin, 31 days, 2 cuttings): 5 | leaf aging ([4]; 5-10 μM oxytocin): inhibit leaf aging | concentration with best coverage of callus on the cutting surface ([4]; 31 days, tested 0-10 μM): 2.5 µM | Number of cuttings that had developed calluses (cuttings from hibiscuses; 1 μM oxytocin, five cuttings): One | Number of cuttings that had developed a root (cuttings from hibiscuses; 5 μM oxytocin, five cuttings): one | Number of cuttings that had developed calluses (cuttings from hibiscuses; 5 μM oxytocin, five cuttings): One | root length (cuttings from hibiscuses; 5 μM oxytocin, one cutting): ~2 mm | Number of cuttings that had developed calluses (cuttings from hibiscuses; 10 μM oxytocin, five cuttings): two
